Measured values reported in patent US5304367A, “In vivo brain imaging agent and method for diagnosis of psychiatric disorders” (New York University, priority 1990, dated 1994).

System: β-adrenergic receptor
Test: quantitative autoradiography of brain sections from suicides and controls ([125I]iodopindolol)
Format: binding, human
Description: Beta Receptor Autoradiography
Iodopindolol is a well characterized βAR antagonist with a very high affinity (<1 nM) and specificity (Barovsky, K. et al., supra). Receptor binding studies are performed according to techniques well known in the art (see, for example, Kuhar, M. J., supra; Rainbow, T. C. et al., 1982, 1984, supra). A preferred method is described herein, although it will be apparent to one of skill in the art that the disclosed method may be modified according to the tissue preparation and ligand used.
Slides holding tissue sections are incubated for about 70 min at approximately 25° C. with 0.15 nM ^125 I-iodopindolol (New England Nuclear, 2200 Ci/mmole) in 25 mM Tris buffer, pH 7.5, containing 150 mM NaCl. Nonspecific binding is determined in the presence of 1 μM propranolol (see Examples, below). Zinterol, a selective β2 blocker, or metoprolol, a selective β1 antagonist, are added to the incubation buffer at 0.1 μM to achieve selective labeling of the β1 and β2 receptor subtypes, respectively. The incubation is followed by three 20 min washes in the same ice cold buffer. Slides are then dipped in ice cold distilled water to remove buffer salts, dried on a 50° C. slide warmer and apposed to ^3 H-sensitive film (Amersham ^3 H-hyperfilm) for 48-96 hours. The film is coexposed to commercial iodine standards (available from Amersham, for example). Film is developed manually using standard developer and fixer such as those available from the Eastman-Kodak Company. Sections are stained with cresyl violet and structures identified from the stained sections with the assistance of atlases and neuroanatomical texts such as: Barr M. L., The Human Nervous System: An Anatomical Viewpoint. Harper and Row, New York (1974); Carpenter M. B., Human Neuroanatomy. Williams and Wilkins, Baltimore (1976); DeArmond S. J. et al., Structure of the Human Brain : A Photographic Atlas. Oxford University Press, New York (1974); Nieuwenhuys R. et al., The Human Central Nervous System, Springer-Verlag, New York (1981 ), which references are hereby incorporated by reference.
Autoradiograms are analyzed by computerized image analysis systems well-known in the art (for example, with the aid of an IBM-PC). The autoradiograms are placed on a light box and a video camera is used for image acquisition. […] Standard curves derived from the iodine standards are used to convert gray level readings into equivalents of fmol ^125 I-iodopindolol / mg tissue. Specific binding is calculated by subtracting nonspecific from total binding.
Fourteen suicide and 14 pair-matched control brains were collected over 3 years from the medical examiner's offices in New York City and Jaffa, ISRAEL. […] The results of the coroner's examination as well as the results of broad-spectrum toxicological tests performed by the forensic laboratory were made available within 8 weeks. Only drug-free and pathology-free brains were included. For each suicide brain, a control matched for sex and age group with a PMD under 48 hours was collected the same day or within a few days, so that the pairs are also matched for storage time. The brains from each pair were dissected or sectioned on the same day and receptors were labeled in the same experiment, by an experimenter blind to the identity of the samples.
For autoradiography, slices from frontal cortical and anterior basal ganglia levels were sectioned in a Bright Cryotome (a refrigerated whole-body microtome) at -15° C. Sections of 40 μm were thaw- mounted onto gelatin-coated glass slides and βARs were labeled with [^125 I]iodopindolol (Pazos et al., Brain Res. 358:324-328 (1982)); Rainbow et al., Proc. Natl. Acad. Sci. U.S.A., 81:1585-1589 (1984)). Receptors were labeled with 150 pM iodopindolol, with or without 10^-6 M propranolol to define non-specific binding. The autoradiograms were developed after 48 or 72 hours. […]

## CC(C)NCC(O)COc1cccc2[nH]cc([125I])c12 (stereo not drawn) [^125 I-iodopindolol]
FIG. 2, sagittal section, normal male, in the presence of propranolol
  nonspecific binding: low and uniform throughout the section
caudate, control, n=5
  [125I]iodopindolol bound: 13.2 ± 4.0 fm/mg tissue
caudate, suicide, n=5
  [125I]iodopindolol bound: 15.4 ± 2.0 fm/mg tissue
Cingulate gyrus, control, n=8
  [125I]iodopindolol bound: 11.8 ± 3.3 fm/mg tissue
Cingulate gyrus, suicide, n=8, P < 0.04
  [125I]iodopindolol bound: 16.0 ± 2.7 fm/mg tissue
Frontalis inferior, control, n=6
  [125I]iodopindolol bound: 14.2 ± 4.0 fm/mg tissue
Frontalis inferior, suicide, n=6
  [125I]iodopindolol bound: 17.2 ± 4.1 fm/mg tissue
Frontalis medius, control, n=8
  [125I]iodopindolol bound: 9.3 ± 4.0 fm/mg tissue
Frontalis medius, suicide, n=8
  [125I]iodopindolol bound: 16.7 ± 3.5 fm/mg tissue
Frontalis superior, control, n=9
  [125I]iodopindolol bound: 10.8 ± 2.6 fm/mg tissue
Frontalis superior, suicide, n=9, P < 0.03
  [125I]iodopindolol bound: 17.2 ± 2.9 fm/mg tissue
putamen, control, n=5
  [125I]iodopindolol bound: 19.5 ± 1.1 fm/mg tissue
putamen, suicide, n=5
  [125I]iodopindolol bound: 17.4 ± 2.5 fm/mg tissue
White matter (cortical), control, n=9
  [125I]iodopindolol bound: 5.6 ± 1.8 fm/mg tissue
White matter (cortical), suicide, n=9
  [125I]iodopindolol bound: 6.7 ± 0.7 fm/mg tissue
